# Source: patent US20150133388A1, “ACETYLATED CRYSTALLIN POLYPEPTIDES AND MIMETICS THEREOF AS THERAPEUTIC AGENTS” (Case Western Reserve University, priority 2012, published 2015)
# No end group written: not given here.
# T1: citrate synthase (CS) (Sus scrofa, UniProt P00889)
# T1 construct: purchased Sigma-Aldrich Chemical Co. (St. Louis, Mo.)
# T1 sequence (P00889 28-464): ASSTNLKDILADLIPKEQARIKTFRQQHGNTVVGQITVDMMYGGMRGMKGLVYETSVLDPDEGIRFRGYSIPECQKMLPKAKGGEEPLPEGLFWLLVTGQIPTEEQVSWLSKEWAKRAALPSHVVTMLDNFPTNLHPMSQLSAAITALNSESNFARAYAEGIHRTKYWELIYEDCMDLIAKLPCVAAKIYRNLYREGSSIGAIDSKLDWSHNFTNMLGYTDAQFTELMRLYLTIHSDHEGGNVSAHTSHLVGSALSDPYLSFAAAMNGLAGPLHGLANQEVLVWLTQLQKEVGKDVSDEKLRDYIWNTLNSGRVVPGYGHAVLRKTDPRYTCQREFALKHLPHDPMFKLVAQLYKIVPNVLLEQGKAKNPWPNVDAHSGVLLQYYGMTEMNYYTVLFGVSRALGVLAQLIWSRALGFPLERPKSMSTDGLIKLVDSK
# B1: αB-crystallin acetyl peptide 73…(acetyl)V93 (peptide)
# peptide: DRFSVNLDVKHFSPEELKVK(Ac)V
# Assays:
# γ-crystallin (GC) = test: Chaperone assay, client protein γ-crystallin; type: biochemical; settings: peptide:γ-crystallin 1:1 (w/w)
# Protocol: (§1) Chaperone assays were performed as previously described. The ratios of the peptides: client proteins (w/w) were as follows: citrate synthase, 1:2.5; insulin, 1:10; βL-crystallin, 1:1.5; and γ-crystallin, 1:1. The scrambled αA-crystallin peptide was tested in certain assays at peptide: client protein ratios as follows: citrate synthase, 1:1.25, insulin, 1:5 to determine peptide specificity.
# caspase-3 = test: Caspase-3 activity in thermally stressed CHO cells; type: cell-based, Chinese hamster; settings: 4 μg/ml
# Protocol: (§2) Cells were lysed in cell lysis buffer (Cell signaling), and lenses were homogenized in 50 mM Tris-buffered saline. Both buffers contained a protease inhibitor cocktail (1:100 dilution). An equal volume of a fluorogenic substrate solution[2× reaction buffer: 10 mM DTT and 50 μM Ac-DEVD-AFC (for caspase-3) or Ac-LEHDAFC (for caspase-9)] was added to each lysate. The lysates were then incubated for 2 h at 37° C. in the dark. The samples were analyzed with a […] spectrofluorometer (HORIBA Scientific, Edison, N.J.) at excitation/emission wavelengths 400/505 nm.
# [1] = system: selenite-induced cataracts; test: Selenite-induced cataract in rat pups (slit lamp); type: in vivo
# Protocol: (§3) Neonatal Sprague-Dawley rat pups (12 days old) were used for these experiments. The pups in the experimental groups received a single subcutaneous injection of sodium selenite (4 mg/Kg body weight) on day 12. Peptides diluted from a stock in sterile water (dissolved by adding 2 μl of 10 N NaOH to a 1.0 ml stock) were injected intraperitoneally (at 2.5, 5, or 10 μg/animal) 6 h prior to selenite injection (single injection). When multiple injections were performed, one pre-selenite injection was administered, as above, followed by four additional injections on four consecutive days after the sodium selenite injection. One group served as the control (no treatment) and another as the selenite control (no peptide injection). The lenses were examined on day 17 (when the pups had opened their eyes) using a slit lamp microscope (after dilating the pupil through topical application of tropicamide) and photographed. For hematoxylin and eosin (H & E) and TUNEL staining, eyes were fixed immediately after enucleation in a 10% buffered formalin solution overnight.
# [2] = system: Human lens epithelial cells (HLE); test: Hyperthermia-induced apoptosis in HLE cells (Hoechst stain); type: cell-based; settings: 43° C. 1 h; for rate of apoptosis after peptide pretreatment: 4 μg/ml in BP 4 h, without peptide nearly 40%
# Protocol: (§4) Human lens epithelial cells (HLE) were isolated from the lens of a donor and cultured in DMEM supplemented with 10% FBS as previously described for mouse lens epithelial cells. Cells between passages 5 and 6 were used for the experiments. Chinese hamster ovary (CHO) cells were cultured in Ham's F12 medium. The α-crystallin peptides were mixed with a cationic lipid, BIOPORTER (BP), according to the manufacturer's instructions (Polyplus transfection reagent, Illkirch, France). When the cultures reached 70-80% confluence, the cells were treated with BP either alone or with the peptides in serumfree medium and incubated for 4 h at 37° C. in a humidified 5% CO2 atmosphere. The cells were then washed with PBS and incubated at 43° C. for 1 h (thermal stress), followed by incubation at 37° C. for 16 h for recovery. The percentage of apoptotic cells was determined by staining the cells with Hoechst. Cells incubated at 37° C. without thermal stress were used as controls.
# insulin (IN) = test: Chaperone assay, client protein insulin; type: biochemical
# Protocol: as §1
# caspase-9 = test: Caspase-9 activity in thermally stressed CHO cells; type: cell-based, Chinese hamster; settings: 4 μg/ml
# Protocol: as §2
# citrate synthase (CS) = molecular target: T1, citrate synthase (CS); test: Chaperone assay, client protein citrate synthase; type: biochemical
# Protocol: as §1
# lens epithelial cells [3] = test: Lens epithelial cell apoptosis in selenite cataract (in situ TUNEL); type: in vivo, rat; settings: multiple 10 μg injections
# Protocol: as §3
# lens protein aggregation = test: Histology (H&E) of lens protein aggregation in selenite cataract; type: in vivo, rat; settings: multiple injections 10 μg
# Protocol: as §3
# CHO cells = test: Hyperthermia-induced apoptosis in CHO cells (Hoechst stain); type: cell-based, Chinese hamster; settings: for inhibition of apoptosis: untreated rate ~28%
# Protocol: as §4
# βL-crystallin (BLC) = test: Chaperone assay, client protein βL-crystallin; type: biochemical; settings: peptide:βL-crystallin 1:1.5 (w/w)
# Protocol: as §1
# lens epithelial cells [4] = test: Calcimycin-induced apoptosis in organ-cultured mouse lenses (TUNEL); type: cell-based; settings: 5 μM calcimycin
# Protocol: The animal experiments conformed to the ARVO Statement for the Use of Animals in Ophthalmic and Vision Research and were approved by the CWRU's Animal Care and Use Committee. Lenses were dissected from the eyes of ˜3-month-old C57B1/6 mice and maintained in artificial aqueous humor (AAH) (113 mM NaCl, 4.5 mM KCl, 1 mM MgCl2, 1.5 mM CaCl2, 6 mM D-glucose, 10 mM HEPES, 20 mM NaHCO3, and 1:1,000 penicillin/streptomycin, pH 7.3). Lenses that developed opacification within 24 h were discarded. Native and acetyl αA- and αB crystallin peptides were added to the culture medium at a concentration of 50 μg/3.0 ml, followed by incubation of the lenses for 16 h. The medium was replaced with fresh medium containing 5 μM calcimycin, and the lenses were incubated for an additional 6 h. After this incubation period, the lenses were thoroughly washed with PBS, fixed in 1% buffered formalin overnight, and embedded in paraffin. Microtome sections (5 μm) were subsequently rehydrated and subjected to antigen retrieval via microwave irradiation in 10 mM citrate buffer (pH 6.0). Apoptosis was measured using the In situ Cell Death Detection Kit (Roche, Indianapolis, Ind.) according to the manufacturer's instructions. The sections were counterstained with DAPI to visualize nuclei.
# [5] = molecular target: the above four client proteins (citrate synthase, insulin, βL-crystallin, γ-crystallin); test: cell-based or functional assay
# [6] = multiple i.p. injections 5 μg/animal
# [7] = multiple i.p. injections 10 μg/animal
# [8] = single i.p. injection 2.5 μg/animal 6 h prior to selenite
# [9] = single i.p. injection 10 μg/animal 6 h prior to selenite
# [10] = 1 μg/ml peptide in BIOPORTER 4 h, 43° C. 1 h
# [11] = 2 μg/ml peptide in BIOPORTER 4 h, 43° C. 1 h
# [12] = 4 μg/ml peptide in BIOPORTER 4 h, 43° C. 1 h
molecule,measurement,setting,value
69DK (acetyl) FVIFLDVKHFSPEDLTVK88 (DK(Ac)FVIFLDVKHFSPEDLTVK; listed as Homo sapiens) [αA-acetyl peptide],chaperone function compared with the native peptide,γ-crystallin (GC),significantly better
same,inhibition of caspase-3 activity,caspase-3,90%
same,inhibition of cataract development,[1]; multiple i.p. injections 2.5 μg/animal,partially inhibited cataract development
same,inhibition of cataract development,[1]; [6],strongly inhibited cataracts
same,inhibition of cataract development,[1]; [7],entirely inhibited cataracts
same,inhibition of cataract development,[1]; [8],ineffective
same,inhibition of cataract development,[1]; single i.p. injection 5 μg/animal 6 h prior to selenite,more effective than the native peptide
same,inhibition of cataract development,[1]; [9],more effective than the native peptide
same,rate of apoptosis after peptide pretreatment,[2],25%
same,chaperone function compared with the native peptide,insulin (IN); peptide:insulin 1:10 (w/w),significantly better
same,inhibition of caspase-9 activity,caspase-9,53%
same,chaperone function compared with the native peptide,citrate synthase (CS); peptide:citrate synthase 1:2.5 (w/w),significantly better
same,inhibition of lens epithelial cell apoptosis (TUNEL),lens epithelial cells [3],inhibited apoptosis
same,inhibition of protein aggregation in the lens center (H&E),lens protein aggregation,inhibited
same,more effective than the native peptide in inhibiting apoptosis,CHO cells; at the 2 and 4 μg concentrations,at least 5%
same,chaperone function compared with the native peptide,βL-crystallin (BLC),not different
69DKFVIFLDVKHFSPEDLTVK88 (listed as Homo sapiens) [αA-native peptide],inhibition of caspase-3 activity,caspase-3,80%
same,inhibition of cataract development,[1]; [6],strongly inhibited cataracts
same,inhibition of cataract development,[1]; [7],entirely inhibited cataracts
same,inhibition of cataract development,[1]; [8],ineffective
same,rate of apoptosis after peptide pretreatment,[2],22%
same,inhibition of caspase-9 activity,caspase-9,51%
same,inhibition of lens epithelial cell apoptosis (TUNEL),lens epithelial cells [3],inhibited apoptosis
same,inhibition of protein aggregation in the lens center (H&E),lens protein aggregation,inhibited
same,inhibition of apoptosis,CHO cells; [10],12%
same,inhibition of apoptosis,CHO cells; [11],14%
same,inhibition of apoptosis,CHO cells; [12],17%
73DRFSVNLDVKHFSPEELKVKV93 (listed as Homo sapiens) [αB-native peptide],inhibition of caspase-3 activity,caspase-3,80%
same,inhibition of cataract development,[1]; [7],inhibited cataract development
same,inhibition of cataract development,[1]; [8],ineffective
same,inhibition of cataract development,[1]; [9],strongly inhibited cataract development
same,rate of apoptosis after peptide pretreatment,[2],18%
same,inhibition of caspase-9 activity,caspase-9,51%
same,inhibition of lens epithelial cell apoptosis (TUNEL),lens epithelial cells [3],inhibited apoptosis
same,inhibition of protein aggregation in the lens center (H&E),lens protein aggregation,inhibited
same,inhibition of apoptosis,CHO cells; [10],8%
same,inhibition of apoptosis,CHO cells; [11],12%
same,inhibition of apoptosis,CHO cells; [12],17%
DFVIDSPFKLVDLEKVHFTK (listed as Homo sapiens) [αA-scrambled peptide],inhibition of cataract development,[1]; [7],entirely ineffective
same,protection from calcimycin-induced apoptosis (in words),lens epithelial cells [4],did not protect the cells
same,inhibition of apoptosis (in words),[2]; 4 μg/ml,did not inhibit apoptosis
same,chaperone function,"insulin (IN); peptide:IN 1:5, two times higher concentration than native and acetyl peptides",did not function as a chaperone
same,chaperone function,"citrate synthase (CS); peptide:CS 1:1.25, two times higher concentration than native and acetyl peptides",did not function as a chaperone
same,inhibition of apoptosis (in words),"CHO cells; 4 μg/ml, 43° C. 1 h",did not inhibit apoptosis
B1,"chaperone function, against the native αB peptide (percent weaker)",[5],10 to 30%
